Experimental data: ChEMBL document CHEMBL3992492, “Sulfoximines from a Medicinal Chemist's Perspective: Physicochemical and in vitro Parameters Relevant for Drug Discovery” (Eur J Med Chem, 2017)
≈ marks a conversion by molar mass, not a printed value.

Legend:
[1] = physchem; details: aqueous
[2] = in vitro; details: human, liver microsomes
Description: Half life in human liver microsomes at 1 uM in presence of NADPH by LC-MS/MS method

[3] = in vitro; details: PAMPA, pH 7.4
Description: Apparent permeability of the compound at pH 7.4 by PAMPA

[4] = physchem; details: octanol/water, pH 10
[5] = in vitro; details: human, liver microsomes; remark: listed apart in the source
[6] = Drug degradation in pH <1 HCl after 7 days by HPLC method
[7] = Drug degradation in pH >10 NH3 after 7 days by HPLC method
[8] = physchem; details: acetonitrile/water mixture
Description: Solubility of the compound in acetonitrile/water mixture at 10 mM measured after 24 by HPLC-UV method

[9] = Apparent partition coefficient, log P of the compound in n-octanol/aqueous mixture at pH 12 by potentiometric titration method; format: physicochemical; details: octanol/water
[10] = octanol/water, pH 7.4
[11] = Dissociation constant, pKb of the compound in aqueous/organic mixture at pH 2 to 12 by potentiometric titration method; format: physicochemical; details: buffer
[12] = Apparent partition coefficient, log P of the compound in n-octanol/aqueous mixture by potentiometric titration method; format: physicochemical
[13] = physchem; details: n-octanol/aqueous mixture, pH 2
[14] = physchem; details: aqueous/organic mixture, pH 2
[15] = physchem; details: n-octanol/aqueous mixture, pH 7.4
[16] = Apparent partition coefficient, log P of the compound in n-octanol/aqueous mixture at pH 3 by potentiometric titration method; format: physicochemical
[17] = Dissociation constant, pKa of the compound; format: physicochemical
[18] = Dissociation constant, pKb of the compound in aqueous phase at pH 2 to 12 by potentiometric titration method; format: physicochemical; details: buffer

SMILES	solubility thermodynamic [1]	half-life at 1 µM [2]	Papp [3]	logP [4]	hepatic extraction ratio at 1 µM [5]	Drug degradation [6]	Drug degradation [7]	solubility at 10000 µM [8]	logP [9]	logD [10]	pKb [11]	logP [12]	logD [13]	pKa [14]	logD [15]	logD [16]	pKa [17]	pKb [18]
CS(C)(=O)=NC(=O)Nc1ccc(C(F)(F)F)cc1	40 µg/mL (≈ 143 µM)	> 2.17 h	4.3 ×10⁻⁶ cm/s	1.6	< 0.23	< 10%	14%	44 µg/mL (≈ 157 µM)	–	–	–	–	–	–	–	–	–	–
CS(=N)(=O)c1ccc(C(F)(F)F)cc1 (stereo not given)	9100 µg/mL (≈ 40800 µM)	> 2.17 h	6.9 ×10⁻⁶ cm/s	–	< 0.23	–	–	> 50 µg/mL	2	2	2.5	–	–	–	–	–	–	–
O=S1(c2ccc(C(F)(F)F)cc2)=NCCCC1 (stereo not given)	4700 µg/mL (≈ 17900 µM)	> 2.17 h	9.2 ×10⁻⁶ cm/s	0.2	< 0.23	< 10%	34%	> 59 µg/mL	–	–	3.8	–	–	–	–	–	–	–
O=S1(=Nc2cccnc2)CCCCC1	–	0.133 h	5.8 ×10⁻⁶ cm/s	–	0.82	–	–	> 75 µg/mL	–	–	4.8	-2.7	–	–	–	–	–	–
CS(=O)(=O)NC(=O)Nc1ccc(C(F)(F)F)cc1	11100 µg/mL (≈ 39300 µM)	> 2.17 h	0.04 ×10⁻⁶ cm/s	–	< 0.23	–	–	55 µg/mL (≈ 195 µM)	–	–	–	–	1.9	4.2	-0.3	–	–	–
O=S1(=Nc2ccc(C(F)(F)F)cc2)CCNCC1	2300 µg/mL (≈ 8260 µM)	1.83 h	8.3 ×10⁻⁶ cm/s	–	0.25	–	–	> 57 µg/mL	–	–	5.2	0.9	–	–	–	–	–	–
O=S1(=N[C@H]2CC[C@@H](C(F)(F)F)CC2)CCCCC1	< 50 µg/mL	0.867 h	10 ×10⁻⁶ cm/s	–	0.43	–	–	–	3.5	3.5	5	–	–	–	–	–	–	–
O=S1(=Nc2ccc(C(F)(F)F)cc2)CCCCC1	70 µg/mL (≈ 252 µM)	0.767 h	7.7 ×10⁻⁶ cm/s	2.8	0.46	< 10%	< 10%	51 µg/mL (≈ 184 µM)	–	–	–	2.8	–	–	–	–	–	–
CNS(=O)(=O)c1ccc(C(F)(F)F)cc1	900 µg/mL (≈ 3760 µM)	> 2.17 h	6.3 ×10⁻⁶ cm/s	–	< 0.23	–	–	> 49 µg/mL	–	–	–	–	2.3	10.7	2.3	–	–	–
CS(C)(=O)=Nc1ccc(C(F)(F)F)cc1	900 µg/mL (≈ 3790 µM)	> 2.17 h	8.2 ×10⁻⁶ cm/s	1.4	< 0.23	13%	20%	> 50 µg/mL	–	–	–	1.4	–	–	–	–	–	–
CS(=O)(=O)Nc1ccc(C(F)(F)F)cc1	600 µg/mL (≈ 2510 µM)	> 2.17 h	5.1 ×10⁻⁶ cm/s	–	< 0.23	–	–	47 µg/mL (≈ 196 µM)	–	–	–	–	–	8	1.9	2	–	–
CS(=O)(=O)NC(=O)c1ccc(C(F)(F)F)cc1	> 20000 µg/mL	> 2.17 h	0.01 ×10⁻⁶ cm/s	–	< 0.23	–	–	> 62 µg/mL	–	–	–	–	1.7	3.2	-1	–	–	–
CS(=N)(=O)c1ccccc1 (stereo not given)	–	–	–	–	–	–	–	–	–	–	–	–	–	–	–	–	2.7	–
CS(=N)(=O)c1ccc(Cl)cc1 (stereo not given)	–	–	–	–	–	–	–	–	–	–	–	–	–	–	–	–	2.3	–
CN=S(C)(=O)c1ccc(C(F)(F)F)cc1 (stereo not given)	2400 µg/mL (≈ 10100 µM)	> 2.17 h	11 ×10⁻⁶ cm/s	0.1	< 0.23	< 10%	< 10%	> 54 µg/mL	–	–	–	–	–	–	–	–	–	–
CNS(=N)(=O)c1ccc(C(F)(F)F)cc1 (stereo not given)	6900 µg/mL (≈ 29000 µM)	0.783 h	5.7 ×10⁻⁶ cm/s	-0.5	0.45	10%	< 10%	–	0.9	0.9	2.4	–	–	–	–	–	–	–
NS(=O)(=O)c1ccc(C(F)(F)F)cc1	800 µg/mL (≈ 3550 µM)	> 2.17 h	4.1 ×10⁻⁶ cm/s	–	< 0.23	–	–	> 48 µg/mL	–	–	–	–	1.4	9.4	1.4	–	–	–
CS(C)(=N)=Nc1ccc(C(F)(F)F)cc1	8400 µg/mL (≈ 35600 µM)	> 2.17 h	5.6 ×10⁻⁶ cm/s	-0.5	< 0.23	–	–	> 51 µg/mL	1.8	1.8	4	–	–	–	–	–	–	–
CS(C)(=N)=NC(=O)Nc1ccc(C(F)(F)F)cc1	500 µg/mL (≈ 1790 µM)	–	3.3 ×10⁻⁶ cm/s	0.4	–	< 10%	< 10%	> 68 µg/mL	–	–	3.3	–	–	–	–	–	–	–
CS(C)(=O)=N[C@H]1CC[C@@H](C(F)(F)F)CC1	300 µg/mL (≈ 1230 µM)	> 2.17 h	7.8 ×10⁻⁶ cm/s	–	< 0.23	–	–	–	2.4	2.4	4.2	–	–	–	–	–	–	–
CS(C)(=O)=NC(=O)c1ccc(C(F)(F)F)cc1	300 µg/mL (≈ 1130 µM)	1.03 h	11 ×10⁻⁶ cm/s	1.8	0.39	> 90%	< 10%	> 53 µg/mL	–	–	–	–	–	–	–	–	–	–
O=S1(=O)CCNCC1	–	–	–	–	–	–	–	–	–	–	–	–	–	–	–	–	–	5.4
N=S1(=Nc2ccc(C(F)(F)F)cc2)CCCCC1	500 µg/mL (≈ 1810 µM)	1.83 h	7.3 ×10⁻⁶ cm/s	1.3	0.25	13%	< 10%	44 µg/mL (≈ 159 µM)	–	–	4	–	–	–	–	–	–	–
O=S1(=Nc2ccncc2)CCCCC1	–	> 2.17 h	5.7 ×10⁻⁶ cm/s	–	< 0.23	–	–	42 µg/mL (≈ 200 µM)	–	–	7.2	-2.6	–	–	–	–	–	–
